Structures can show the parent of a compound that is named as a salt.
Molecular target: HPK1 (Homo sapiens (Human), UniProt Q92918)
Test: HPK1 Lantha binding assay ("Lanth")
Settings: binding assays; Morrison Ki fit
Procedure, shortened: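 Ki values are from Morrison-equation fitting of 665/615 nm TR-FRET signals, taking enzyme level, tracer level and tracer Kd into account. The assay mix held HPK1 (2 nM), Eu-anti-GST antibody (2 nM) and Tracer222 (15 nM). Incubations were two 1 h steps at 23 °C, on 5-fold serial compound dilutions.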

Sequence of HPK1 (Q92918 1-346 limits assumed): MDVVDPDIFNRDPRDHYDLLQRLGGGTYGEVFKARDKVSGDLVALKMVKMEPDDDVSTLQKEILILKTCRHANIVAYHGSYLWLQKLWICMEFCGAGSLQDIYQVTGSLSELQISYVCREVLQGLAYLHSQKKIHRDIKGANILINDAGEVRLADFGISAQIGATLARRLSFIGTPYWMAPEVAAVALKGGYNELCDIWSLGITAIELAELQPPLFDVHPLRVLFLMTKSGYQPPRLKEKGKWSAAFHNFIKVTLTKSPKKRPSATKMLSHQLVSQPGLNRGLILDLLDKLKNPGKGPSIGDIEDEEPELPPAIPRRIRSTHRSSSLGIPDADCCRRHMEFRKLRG

Ki [nM] | SMILES
50.6 | O=C1CCCCN1c1cccc2c(-c3cnc4c(c3Cl)C3(CCC(O)C3)CN4)c[nH]c12 (stereo not drawn) [Compound 300, 1-(3-(4′-Chloro-3-hydroxy-1′,2′-dihydrospiro[cyclopentane-1,3′-pyrrolo[2,3-b]pyridin]-5′-yl)-1H-indol-7-yl)piperidin-2-one]
68.2 | CN(C)C(=O)Cc1cccc2c(-c3cnc4c(c3Cl)C3(CC3)CN4)c[nH]c12 [Compound 301, 2-(3-(4′-Chloro-1′,2′-dihydrospiro[cyclopropane-1,3′-pyrrolo[2,3-b]pyridin]-5′-yl)-1H-indol-7-yl)-N,N-dimethylacetamide]
46.3 | O=C1COCCN1c1cccc2c(-c3cnc4c(c3Cl)C3(CC3)CN4)c[nH]c12 [Compound 302, 4-(3-(4′-Chloro-1′,2′-dihydrospiro[cyclopropane-1,3′-pyrrolo[2,3-b]pyridin]-5′-yl)-1H-indol-7-yl)morpholin-3-one]
32.6 | O=C1CNCCN1c1cccc2c(-c3cnc4c(c3)C3(CC3)CN4)c[nH]c12 [Compound 303, 1-(3-(1′,2′-Dihydrospiro[cyclopropane-1,3′-pyrrolo[2,3-b]pyridin]-5′-yl)-1H-indol-7-yl)piperazin-2-one]
17.2 | N#Cc1ccc2[nH]cc(-c3cnc4c(c3)C3(CC3)CN4)c2c1 [Compound 307, 3-(1′,2′-Dihydrospiro[cyclopropane-1,3′-pyrrolo[2,3-b]pyridin]-5′-yl)-1H-indole-5-carbonitrile]
186 | Cc1n[nH]cc1-c1cnc2c(c1Cl)C1(CC=CC1)CN2 [Compound 308, 4′-Chloro-5′-(3-methyl-1H-pyrazol-4-yl)-1′,2′-dihydrospiro[cyclopentane-1,3′-pyrrolo[2,3-b]pyridin]-3-ene]
29 | COc1c(-c2ccc(N)c(C(=O)N(C)C)n2)cnc2c1C1(CC1)CN2 [Compound 309, 3-Amino-6-(4′-methoxy-1′,2′-dihydrospiro[cyclopropane-1,3′-pyrrolo[2,3-b]pyridin]-5′-yl)-N,N-dimethylpicolinamide]
10.6 | CN1CCN(c2cc(Cl)cc3c(-c4cnc5c(c4)C4(CC4)CN5)c[nH]c23)C(=O)C1 [Compound 310, 1-(5-Chloro-3-(1′,2′-dihydrospiro[cyclopropane-1,3′-pyrrolo[2,3-b]pyridin]-5′-yl)-1H-indol-7-yl)-4-methylpiperazin-2-one]
161 | NC(=O)CCn1cc(-c2cnc3c(c2Cl)C2(CC=CC2)CN3)cn1 [Compound 311, 3-(4-(4′-Chloro-1′,2′-dihydrospiro[cyclopentane-1,3′-pyrrolo[2,3-b]pyridin]-3-en-5′-yl)-1H-pyrazol-1-yl)propanamide]
45.9 | Clc1ccc2[nH]cc(-c3cnc4c(c3)C3(CC3)CN4)c2c1 [Compound 312, 5′-(5-Chloro-1H-indol-3-yl)-1′,2′-dihydrospiro[cyclopropane-1,3′-pyrrolo[2,3-b]pyridine]]
73.1 | Cc1ccc2[nH]cc(-c3cnc4c(c3)C3(CC3)CN4)c2c1 [Compound 313, 5′-(5-Methyl-1H-indol-3-yl)-1′,2′-dihydrospiro[cyclopropane-1,3′-pyrrolo[2,3-b]pyridine]]
125 | c1ccc2c(-c3cnc4c(c3)C3(CC3)CN4)c[nH]c2c1 [Compound 314, 5′-(1H-Indol-3-yl)-1′,2′-dihydrospiro[cyclopropane-1,3′-pyrrolo[2,3-b]pyridine]]
34.4 | COc1c(-c2c[nH]c3ccc(C#N)cc23)cnc2c1C1(CC1)CN2 [Compound 315, 3-(4′-Methoxy-1′,2′-dihydrospiro[cyclopropane-1,3′-pyrrolo[2,3-b]pyridin]-5′-yl)-1H-indole-5-carbonitrile]
492 | Fc1cccc2[nH]cc(-c3cnc4c(c3)C3(CC3)CN4)c12 [Compound 316, 5′-(4-Fluoro-1H-indol-3-yl)-1′,2′-dihydrospiro[cyclopropane-1,3′-pyrrolo[2,3-b]pyridine]]
209 | OCCn1cc(-c2cnc3c(c2Cl)C2(CC=CC2)CN3)cn1 [Compound 317, 2-(4-(4′-Chloro-1′,2′-dihydrospiro[cyclopentane-1,3′-pyrrolo[2,3-b]pyridin]-3-en-5′-yl)-1H-pyrazol-1-yl)ethan-1-ol]
236 | NC(=O)Cn1cc(-c2cnc3c(c2Cl)C2(CC=CC2)CN3)cn1 [Compound 318, 2-(4-(4′-Chloro-1′,2′-dihydrospiro[cyclopentane-1,3′-pyrrolo[2,3-b]pyridin]-3-en-5′-yl)-1H-pyrazol-1-yl)acetamide]
306 | CN(C)C(=O)Cn1cc(-c2cnc3c(c2Cl)C2(CC=CC2)CN3)cn1 [Compound 319, 2-(4-(4′-Chloro-1′,2′-dihydrospiro[cyclopentane-1,3′-pyrrolo[2,3-b]pyridin]-3-en-5′-yl)-1H-pyrazol-1-yl)-N,N-dimethylacetamide]
337 | CC(C)(O)Cn1cc(-c2cnc3c(c2Cl)C2(CC=CC2)CN3)cn1 [Compound 320, 1-(4-(4′-Chloro-1′,2′-dihydrospiro[cyclopentane-1,3′-pyrrolo[2,3-b]pyridin]-3-en-5′-yl)-1H-pyrazol-1-yl)-2-methylpropan-2-ol]

Ki [nM] | SMILES
321 | Cc1[nH]ncc1-c1cnc2c(c1)C1(CC1)CN2 [Compound 321, 5′-(5-Methyl-1H-pyrazol-4-yl)-1′,2′-dihydrospiro[cyclopropane-1,3′-pyrrolo[2,3-b]pyridine]]
37.3 | N#Cc1ccc2[nH]nc(-c3cnc4c(c3)C3(CC3)CN4)c2c1 [Compound 322, 3-(1′,2′-Dihydrospiro[cyclopropane-1,3′-pyrrolo[2,3-b]pyridin]-5′-yl)-1H-indazole-5-carbonitrile]
603 | Clc1c(-c2cnn(Cc3ccccc3)c2)cnc2c1C1(CC=CC1)CN2 [Compound 323, 5′-(1-Benzyl-1H-pyrazol-4-yl)-4′-chloro-1′,2′-dihydrospiro[cyclopentane-1,3′-pyrrolo[2,3-b]pyridin]-3-ene]
30.4 | CN1CCN(c2cc(C#N)cc3c(-c4cnc5c(c4)C4(CC4)CN5)c[nH]c23)C(=O)C1 [Compound 324, 3-(1′,2′-Dihydrospiro[cyclopropane-1,3′-pyrrolo[2,3-b]pyridin]-5′-yl)-7-(4-methyl-2-oxopiperazin-1-yl)-1H-indole-5-carbonitrile]
40.7 | N#Cc1ccc2[nH]cc(-c3cnc4c(c3Cl)[C@]3(CC[C@H](O)CC3)CN4)c2c1 [Compound 325a, 3-((1s,4s)-4′-Chloro-4-hydroxy-1′,2′-dihydrospiro[cyclohexane-1,3′-pyrrolo[2,3-b]pyridin]-5′-yl)-1H-indole-5-carbonitrile]
76 | Cc1n[nH]cc1-c1ccc2[nH]cc(-c3cnc4c(c3)C3(CC3)CN4)c2c1 [Compound 326, 5′-(5-(3-Methyl-1H-pyrazol-4-yl)-1H-indol-3-yl)-1′,2′-dihydrospiro[cyclopropane-1,3′-pyrrolo[2,3-b]pyridine]]
397 | COCCn1cc(-c2cnc3c(c2Cl)C2(CC=CC2)CN3)cn1 [Compound 327, 4′-Chloro-5′-(1-(2-methoxyethyl)-1H-pyrazol-4-yl)-1′,2′-dihydrospiro[cyclopentane-1,3′-pyrrolo[2,3-b]pyridin]-3-ene]
289 | c1nc2c(cc1-c1c[nH]c3ccc(C4CC4)cc13)C1(CC1)CN2 [Compound 328, 5′-(5-Cyclopropyl-1H-indol-3-yl)-1′,2′-dihydrospiro[cyclopropane-1,3′-pyrrolo[2,3-b]pyridine]]
90 | c1cc2[nH]cc(-c3cnc4c(c3)C3(CC3)CN4)c2cn1 [Compound 329, 5-(1H-Pyrrolo[3,2-c]pyridin-3-yl)spiro[1,2-dihydropyrrolo[2,3-b]pyridine-3,1′-cyclopropane]]
243 | CS(=N)(=O)c1ccc2[nH]cc(-c3cnc4c(c3)C3(CC3)CN4)c2c1 (stereo not drawn) [Compound 331, (3-(1′,2′-Dihydrospiro[cyclopropane-1,3′-pyrrolo[2,3-b]pyridin]-5′-yl)-1H-indol-5-yl)(imino)(methyl)-γ6-sulfanone]
570 | c1ccc2c(c1)nnn2-c1cnc2c(c1)C1(CC1)CN2 [Compound 332, 5-(Benzotriazol-1-yl)spiro[1,2-dihydropyrrolo[2,3-b]pyridine-3,1′-cyclopropane]]
42.3 | c1cc2c(-c3cnc4c(c3)C3(CC3)CN4)c[nH]c2cn1 [Compound 333, 5-(1H-Pyrrolo[2,3-c]pyridin-3-yl)spiro[1,2-dihydropyrrolo[2,3-b]pyridine-3,1′-cyclopropane]]
48 | c1nnc(-c2ccc3[nH]cc(-c4cnc5c(c4)C4(CC4)CN5)c3c2)o1 [Compound 334, 2-(3-(1′,2′-Dihydrospiro[cyclopropane-1,3′-pyrrolo[2,3-b]pyridin]-5′-yl)-1H-indol-5-yl)-1,3,4-oxadiazole Formate Salt]
130 | Cn1cnnc1-c1ccc2[nH]cc(-c3cnc4c(c3)C3(CC3)CN4)c2c1 [Compound 335, 5′-(5-(4-Methyl-4H-1,2,4-triazol-3-yl)-1H-indol-3-yl)-1′,2′-dihydrospiro[cyclopropane-1,3′-pyrrolo[2,3-b]pyridine]]
46.6 | Cc1cc2[nH]cc(-c3cnc4c(c3)C3(CC3)CN4)c2cc1-c1cnn(C)c1 [Compound 336, 5′-(6-Methyl-5-(1-methyl-1H-pyrazol-4-yl)-1H-indol-3-yl)-1′,2′-dihydrospiro[cyclopropane-1,3′-pyrrolo[2,3-b]pyridine]]
79.7 | Fc1ccc2[nH]cc(-c3cnc4c(c3)C3(CC3)CN4)c2c1 [Compound 338, 5′-(5-Fluoro-1H-indol-3-yl)-1′,2′-dihydrospiro[cyclopropane-1,3′-pyrrolo[2,3-b]pyridine]]
373 | CN(C)C(=O)c1ccc2[nH]cc(-c3cnc4c(c3)C3(CC3)CN4)c2c1 [Compound 339, 3-(1′,2′-Dihydrospiro[cyclopropane-1,3′-pyrrolo[2,3-b]pyridin]-5′-yl)-N,N-dimethyl-1H-indole-5-carboxamide]
14.8 | CN(c1cc(C#N)cc2c(-c3cnc4c(c3)C3(CC3)CN4)c[nH]c12)S(C)(=O)=O [Compound 340, N-(5-Cyano-3-(1′,2′-dihydrospiro[cyclopropane-1,3′-pyrrolo[2,3-b]pyridin]-5′-yl)-1H-indol-7-yl)-N-methylmethanesulfonamide]
